Test results taken from patent US11679110B2, “Methods of treating disorders using CSF1R inhibitors” (Deciphera Pharmaceuticals, LLC, priority 2018, dated 2023).
Like-named read-outs stand apart in the source and are kept apart here.

Columns and labels:
[1] = Dose escalation 3+3 design, DLT / maximum tolerated dose in patients; type: in vivo, human; details: through Cohort 7
Text: A minimum of 3 patients is enrolled in each dose level cohort. If a patient experiences a DLT during Cycle 1, then the cohort will be expanded to 6 patients. If ≥2 patients out of 3 to 6 patients experience one or more dose-limiting toxicities (DLT(s)) during Cycle 1, dose escalation will end, and a lower dose level cohort will be expanded for determination of the maximum tolerated dose (MTD). If no additional patients experience a DLT in the expanded cohort, the dose level will be escalated. Decisions of dose escalation and the dose level of the next cohort will be determined. A patient will be evaluable in the dose escalation phase if the patient either experienced a DLT during Cycle 1 or received ≥80% of planned doses of study drug in Cycle 1. After Dose Escalation Cohort 6, a review of safety, PK and PD data will determine future escalation cohorts. No more than 50% increases in a total dose given in the first cycle will be allowed from the previous cohort.
The MTD will be defined as the highest dose level at which no more than 1 of 6 DLT-evaluable patients experiences a DLT(s) in Cycle 1 during dose escalation. An additional, lower, intermediate dose level may be explored to determine a recommended phase 2 dose (RP2D). The RP2D will be the MTD or a biologically active or maximally feasible dose lower than the MTD. Different RP2Ds may be determined for solid tumor and DTGCT patients. […]

[2] = system: CD11b+/F4/80+ intratumoral macrophages; assay: Syngeneic MC38 mouse model of colorectal cancer, tumor-associated macrophages by flow cytometry, 7 days of treatment; type: in vivo; details: MC38 mice, seven days
Method: The protocol and procedures involving the care and use of animals in the syngeneic MC38 mouse xenograft models below were reviewed and approved by the Institutional Animal Care and Use Committee (IACUC) of CrownBio (Taicang Jiangsu Province, China) prior to conduct. During the study, the care and use of animals was conducted in accordance with the regulations of the Association for Assessment and Accreditation of Laboratory Animal Care (AAALAC). All mice had food and water ad libitum. […] In the first experiment, six- to eight-week old female C57BL/6 mice were inoculated subcutaneously in the right lower flank with one million MC38 tumor cells in Phosphate Buffered Saline. […] Tumor volume and body weight were measured thrice weekly. Tumor burden (mg) was estimated from caliper measurements by the formula: tumor burden (mg=mm^3)=(length×width^2)/2. Tumors were collected at 2 hours post the 7th dose on day 18 and freshly processed to assess infiltrating tumor-associated macrophages by flow cytometry using antibodies to CD11b+, F4/80, and CD45+. First, tumors were washed in phosphate-buffered saline and treated with collagenase and DNase. After treatment, cells were repeatedly passed through a 70 μm cell strainer. Cells were further washed, resuspended in red blood cell lysing buffer, then washed again. […]

intratumoral macrophages = details: MC38 mice; oral QD; 21 days
[3] = dog, in vivo
in vivo [4] = details: Sprague-Dawley, rat
[5] = Sprague-Dawley, rat, in vivo, 4 weeks
in vivo [6] = details: beagle, dog
[7] = human, in vivo
[8] = dog

Cc1nc(-c2cnc(NC(C)C)n(C)c2=O)ccc1Oc1ccnc(-c2cnn(C)c2)c1 [Compound 1, 2-(isopropylamino)-3-methyl-5-(6-methyl-5-((2-(1-methyl-1H-pyrazol-4-yl)pyridin-4-yl)oxy)pyridin-2-yl)pyrimidin-4(3H)-one]
MTD [1]: has not been reached | reduction in CD11b+/F4/80+ intratumoral macrophages (as a percent of CD45+ cells in the tumor) ([2]; 5, 10, 15 mg/kg QD oral): dose-dependent reduction | reduction of intratumoral macrophages (as a percent of CD45+ cells in the tumor) ([2]; high dose (15 mg/kg QD oral)): ~67% | reduction in intratumoral macrophages compared to vehicle or isotype controls (as a percent of all cells in the tumor) (intratumoral macrophages): > 80% | HNSTD (Highest Non-Serious Toxic Dose) ([3]; beagle, 4 weeks): 7.5 mg/kg/day | safety margin at NOAEL/HNSTD relative to clinical exposure (AUC) [3]: about 2.1 × | NOAEL at 4 weeks (in vivo [4]): 5 mg/kg/day | STD10 (Severely Toxic Dose in 10% of animals) [5]: 15 mg/kg/day | NOAEL at 13 weeks (in vivo [6]): 8 mg/kg/day | Grade 3/4 elevated AST/ALT events, elevated bilirubin levels or hepatic AEs [7]: did not exhibit | NOAEL at 4 weeks ([8]; beagle, in vivo): 7.5 mg/kg/day | hepatocellular injury in microscopic histology exams ([8]; 4-week): not evident | AST activity ([8]; 4-week, ≥2.5 mg/kg/day): minimally to mildly increased | ALT and GLDH activity ([8]; 4-week, ≥7.5 mg/kg/day): minimally increased
